Read-outs that look alike come from different tables or passages of the source. Ends that are not written are not given here.
Experiments:
[1] = tested on: estradiol benzoate-progesterone-treated ovariectomized rats; assay: Ingestive behavior noticed after ivt hPP during LH release studies; format: in vivo, rat; details: intraventricular (ivt) administration
Description: 251; Morley et al (1973), Neurosci. Biobehav. Revs. 7: 281]. Recently, Tatemoto, Proc. Natl. Acad. Sci. USA. […] The detailed distribution pattern of neurons displaying NPY-like immunoreactivity in the rat brain has been described [Allen et al (1983), Science 221:877; Allen et al (1983), 13th Ann. Mtg. Soc. Neurosci. 9:291 (Abstr.); O'Donohue et al (1983), 13th Ann. Mtg. Soc. Neurosci. 9:290 (Abstr.)]. The physiological significance of NPY-like immunoreactivity in the rat brain is presently unknown.

[2] = tested on: ovariectomized rats pretreated with estradiol benzoate plus progesterone; assay: Food intake and ingestive behavior after two ivt injections, Example 1; format: in vivo, rat
Protocol: Adult female rats (CRL:CD® (SD)BR, Charles River Breeding Labs, Wilmington, MA) were maintained in individual wire bottom cages under controlled temperature and light (lights on 0500-1900 h) with ad libitum access to food and water. Rats were ovariectomized and permanent cannulae were implanted in the third cerebral ventricle under pentobarbital anesthesia (40 mg/kg, […]). Eleven to 13 days after surgery, rats were treated with estradiol benzoate (30 μg in 0.1 ml sesame oil, sc) and progesterone (15 mg in 0.3 ml sesame oil, sc). Two days later […], food and water were removed and patency of the ivt cannula was checked by observing efflux of cerebrospinal fluid. […] Immediately after the ivt injections, rats were returned to their home cages which contained a known amount of rat chow and observed for 60 min. The behavior was recorded in 5 mutually exclusive categories: eating, grooming, locomotion, resting and other [Blundell, Bio-grammar of Feeding: Pharmacological Manipulations and Their Interpretations. In: Cooper, S. J. (ed) Theory in Psychopharmacology, Academic Press, N.Y., Vol. I: 233 (1981)] the following measurements were derived; total food intake (g); latency to feeding response (min); duration of time spent eating (min); number of eating bouts (n); duration of eating bouts (min) and local eating rate (g/min). Local eating rate is a measure of amount of food consumed per unit time spent eating.
Although no attempt was made to quantify the water intake, the latency to drinking and amount of time spent on drinking were monitored.
The number of animals feeding and drinking after peptide treatment were compared with saline-treated rats by the Fisher exact probability test. Parameters of ingestive behavior of controls vs. peptide treated groups were analyzed by the Mann-Whitney U test. Comparisons within groups of parameters after the first and second injections were made with the Wilcoxon matched pairs - signed rank test.
(*=P<0.05; **=P<0.01, Mann-Whitney U tests; a=p<0.05; b=P<0.025; c=P<0.005, Fisher Exact Probability Test) and S=saline.

[3] = intravenous administration, Konturek et al; cited from earlier work
normal adult male rats = assay: Food intake after NPY and RPP by the Example 1 procedure, Example 3; format: in vivo, rat
hyperphagic obese mice = details: cited from earlier work
[4] = 2 or 10 μg ivt, after second injection, P<0.02
[5] = hyperphagic obese mice, Malaisse et al
[6] = obese mice, intravenous, Zipf et al

Which ingestive behavior [1] does the source give for “human pancreatic polypeptide (APLEPVYPGDNATPEQMAQYAADLRRYINMLTRPRY; ends and bridges not checked; UniProt P01298 30-65, looked up) [hPP, human pancreatic polypeptide, straight-chain 36 amino acid residues; from Boehringer Mannheim]” here?
Its ingestive behavior is “enhanced ingestive behavior”.

And the “rats that ate after the first injection” value ([2]; 2 μg ivt)?
Its value is 4/6.

What about the “rats in which the drinking response preceded the feeding response” value ([2]; 10 μg ivt) of the same compound?
Its value is 3/7.

What about the “rats that ate after the first injection” value ([2]; 10 μg ivt) of the same compound?
Its value is 5/7.

What about the “amount of time spent drinking” value [2, 4] of the same compound?
The value was “only the higher does of hPP produced a similar response”.

What about the “number of animals drinking” value [2, 4] of the same compound?
The value was “only the higher does of hPP produced a similar response”.

What about the cumulative food intake ([2]; 2 or 10 μg ivt, compared with saline treated control rats) of the same compound?
The cumulative food intake was “stimulated cumulative food intake”.

What about the “number of rats grooming during the observation periods” value ([2]; ivt) of the same compound?
The value was “Neither peptide altered the number of rats grooming”.

With `NC(=O)[C@@H]1CCCN1C(=O)[C@H](Cc1cnc[nH]1)NC(=O)[C@@H]1CCC(=O)N1` [TRH, p-Glu-His-Pro-NH2] as the compound, how does the food intake [3] read?
Its food intake is “suppressed food intake”.

With “rat pancreatic polypeptide (APLEPMYPGDYATHEQRAQYETQLRRYINTLTRPRY; ends and bridges not checked; UniProt P06303 30-65, looked up) [RPP, rat pancreatic polypeptide, member of the vertebrate pancreatic polypeptides (Pancreatic Hormone III)]” as the compound, how does the cumulative food intake (normal adult male rats) read?
The cumulative food intake was “enhanced cumulative food intake which is dose-dependent”.

What does the source list for “bovine pancreatic polypeptide [bovine PP]”?
body weight gain (hyperphagic obese mice; [5]): suppressed body weight gain; food intake (hyperphagic obese mice; [5]): reduced food intake; food intake (hyperphagic obese mice; [6]): decrease of food intake; weight gain (hyperphagic obese mice; [6]): decrease in weight gain
